Where two headings read alike, the source gives them in different places.
What was measured:
ATX = target: T1, ATX (Homo sapiens, UniProt Q13822); test: ATX inhibitory activity: LPA production in pooled human plasma, LC-MS-MS; assay type: biochemical; conditions: 37° C. 2 h
T1 construct: ATX activity was detected by detecting LPA production in pooled human plasma; from tissue; host or cells: pooled human plasma (heparin-anticoagulated whole blood, centrifuged)
Procedure: Experimental subject: compounds to be tested.
ATX activity was detected by detecting LPA production in pooled human plasma. Whole blood anticoagulated with heparin was collected and centrifuged, and then plasma was collected. 5-μL gradient dilution of the compound to be tested or DMSO was added to 95-μL plasma, incubated at 37° C. for 2 h, then a stop solution (40 mM disodium hydrogen phosphate buffer, containing a buffer solution (containing 30 mM citric acid, pH=4)) was added. LPA in plasma was detected by LC-MS-MS before and after incubation.
LPA (18:2) and (20:4) LC-MS-MS analytical method
Using a 1.5 mL EP tube, 3.0 μL of each of the working solutions for standard curve and quality control was taken and added to 27.0 μL of water. After homogeneously mixing by vortex, 400 μL of internal standard solution was added. After homogeneously mixing by vortex, the mixture was centrifuged at 4° C. for 10 min. 180 μL of supernatant was taken and added into a 96-well plate, waiting for sample injection.
10 μL of the compound to be tested (10 mg/ml) was precisely pipetted into an EP tube, 990 μL of DMSO solution was added, and the mixture was vortexed to completely dissolve to obtain a solution (100 μg/mL).
Inhibition rate of ATX receptor activity was calculated in the following way: inhibition rate %=((LPAc−LPA0)−(LPAi−LPA0))/(LPAc−LPA0)*100%, wherein LPAc was the LPA content in plasma after DMSO was added and incubated for 2 h, LPA0 was the LPA content in plasma before DMSO was added for incubation, and LPAi was the LPA content in plasma after test compound was added and incubated for 2 h.

[1] = Pharmacokinetic experiment in mice (single dose iv and intragastric); assay type: in vivo; conditions: mouse, plasma, male C57 mice
Procedure: Experimental objective: In this experiment, a single dose of each test compound was administered to C57 mice intravenously and intragastrically, the concentrations of the compounds 35, 37 and 38 in plasma of the mice were measured, and the pharmacokinetic characteristics and bioavailability of each test compound in mice were evaluated.
Experimental animals: Male C57 mice, 20-25 g, 6-8 weeks old, 18 mice/compound. The experimental animals were purchased from CHENGDU DOSSY EXPERIMENTAL ANIMALS CO., LTD.
Experimental method: On the day of the experiment, 18 C57 mice were randomly grouped according to their body weight. The animals were fasted with water available for 12 to 14 hours one day before the administration of a test compound, and were fed 4 hours after the administration.
Before and after the administration, 0.08 ml of blood was taken from the orbit of the […] under isoflurane anesthesia, and placed in an EDTAK2 centrifuge tube. Centrifugation was carried out at 5000 rpm at 4° C. for 10 min and the plasma was collected.
Time points for plasma collection in G1 group: 0, 5, 15, 30 min, 1, 2, 4, 6, 8, and 24 h.
Time points for plasma collection in G2 group: 0, 15, 30 min, 1, 2, 4, 6, 8, and 24 h.
Before analysis and detection, all samples were stored at −80° C.
30 μL of each of plasma sample, standard curve and quality control sample was taken, and 200 μL of acetonitrile solution containing internal standard was added, and the mixture was homogeneously mixed by vortex, and then centrifuged at 12000 rpm for 10 min at 4° C. The supernatant was taken and added into a 96-well plate and analyzed by LC-MS/MS.
The main pharmacokinetic parameters were analyzed by non-compartmental model using WinNonlin 8.0 software.

[2] = LPA 18:2 readout, read-out: Inhibitory activity against ATX receptor, LPA 18:2 IC50
[3] = LPA 20:4 readout, read-out: Inhibitory activity against ATX receptor, LPA 20:4 IC50

SMILES | IC50 (ATX; [2]) [nM] | IC50 (ATX; [3]) [nM] | other results
O=C(Cc1nnc(-c2cnc(NC3Cc4cscc4C3)nc2)o1)N1CCc2[nH]nnc2C1 [Compound 26, 2-(5-(2-((5,6-dihydro-4H-cyclopenta[c]thiophen-5-yl)amino)pyrimidin-5-yl)-1,3,4-oxadiazol-2-yl)-1-(1,4,6,7-tetrahydro-5H-[1,2,3]triazolo[4,5-c]pyridin-5-yl)ethan-1-one] | 8.73 | 8.86 | 
N#Cc1ccc2c(c1)CC(Nc1ncc(-c3nnc(CC(=O)N4CCc5[nH]nnc5C4)o3)cn1)C2 (stereo not drawn) [Compound 8, 2-((5-(5-(2-(6,7-dihydro-1H-[1,2,3]triazolo[4,5-c]pyridin-5(4H)-yl)-2-oxoethyl)-1,3,4-oxadiazol-2-yl)pyrimidin-2-yl)amino)-2,3-dihydro-1H-indene-5-carbonitrile] | 5.94 | 6.18 | 
O=C(N1CCc2[nH]nnc2C1)C1(c2nnc(-c3cnc(NC4Cc5ccccc5C4)nc3)o2)CCC1 [Compound 20, (1-(5-(2-((2,3-dihydro-1H-inden-2-yl)amino)pyrimidin-5-yl)-1,3,4-oxadiazol-2-yl)cyclobutyl)(1,4,6,7-tetrahydro-5H-[1,2,3]triazolo[4,5-c]pyridin-5-yl)methanone] | 3.65 | 3.76 | 
O=C(Cc1nnc(-c2cnc(N[C@@H]3Cc4ccc(C(F)F)cc4C3)nc2)o1)N1CCc2[nH]nnc2C1 [Compound 37, (R)-2-(5-(2-((5-(difluoromethyl)-2,3-dihydro-1H-inden-2-yl)amino)pyrimidin-5-yl)-1,3,4-oxadiazol-2-yl)-1-(1,4,6,7-tetrahydro-5H-[1,2,3]triazolo[4,5-c]pyridin-5-yl)ethan-1-one] | 4.84 | 4.78 | bioavailability ([1]; po 10 mg/kg vs iv 2.5 mg/kg, read-out: F (bioavailability)): 17.8%; AUC ([1]; iv 2.5 mg/kg): 3790 ng·h/mL; C0 ([1]; iv 2.5 mg/kg): 6640 ng/mL; half-life ([1]; iv 2.5 mg/kg): 53.3 min; AUC ([1]; po 10 mg/kg): 2700 ng·h/mL; Cmax ([1]; po 10 mg/kg): 1600 ng/mL; Tmax ([1]; po 10 mg/kg): 15 min; half-life ([1]; po 10 mg/kg): 78.6 min
O=C(Cc1nnc(-c2cnc(NC3Cc4cc5c(cc4C3)OCO5)nc2)o1)N1CCc2nn[nH]c2C1 [Compound 29, 2-(5-(2-((6,7-dihydro-5H-indeno[5,6-d][1,3]dioxol-6-yl)amino)pyrimidin-5-yl)-1,3,4-oxadiazol-2-yl)-1-(3,4,6,7-tetrahydro-5H-[1,2,3]triazolo[4,5-c]pyridin-5-yl)ethan-1-one] | 2.75 | 3.27 | 
O=C(Cc1nnc(-c2cnc(NC3Cc4ccc(-c5ccoc5)cc4C3)nc2)o1)N1CCc2[nH]nnc2C1 (stereo not drawn) [Compound 28, 2-(5-(2-((5-(furan-3-yl)-2,3-dihydro-1H-inden-2-yl)amino)pyrimidin-5-yl)-1,3,4-oxadiazol-2-yl)-1-(1,4,6,7-tetrahydro-5H-[1,2,3]triazolo[4,5-c]pyridin-5-yl)ethan-1-one] | 5.24 | 5.4 | 
C#Cc1ccc2c(c1)CC(Nc1ncc(-c3nnc(CC(=O)N4CCc5[nH]nnc5C4)o3)cn1)C2 (stereo not drawn) [Compound 31, 2-(5-(2-((5-ethynyl-2,3-dihydro-1H-inden-2-yl)amino)pyrimidin-5-yl)-1,3,4-oxadiazol-2-yl)-1-(1,4,6,7-tetrahydro-5H-[1,2,3]triazolo[4,5-c]pyridin-5-yl)ethan-1-one] | 2.61 | 2.85 | 
O=C(Cc1nnc(-c2cnc(NC3Cc4ccc(C(F)F)cc4C3)nc2)o1)N1CCc2[nH]nnc2C1 (stereo not drawn) [Compound 9, 2-(5-(2-((5-(difluoromethyl)-2,3-dihydro-1H-inden-2-yl)amino)pyrimidin-5-yl)-1,3,4-oxadiazol-2-yl)-1-(1,4,6,7-tetrahydro-5H-[1,2,3]triazolo[4,5-c]pyridin-5-yl)ethan-1-one] | 3.26 | 3.65 | 
O=C(Cc1nnc(-c2cnc(N[C@H]3Cc4ccc(-c5ccoc5)cc4C3)nc2)o1)N1CCc2[nH]nnc2C1 (single isomer, unassigned) [Compound 42] | 2.86 | 2.69 | 
CNC(=O)c1nn(CC(=O)N2CCc3[nH]nnc3C2)cc1-c1cnc(NC2Cc3ccccc3C2)nc1 [Compound 3, 4-(2-((2,3-dihydro-1H-inden-2-yl)amino)pyrimidin-5-yl)-N-methyl-1-(2-oxo-2-(1,4,6,7-tetrahydro-5H-[1,2,3]triazolo[4,5-c]pyridin-5-yl)ethyl)-1H-pyrazole-3-carboxamide] | 5.68 | 5.65 | 
CC(F)(C(=O)N1CCc2[nH]nnc2C1)c1nnc(-c2cnc(NC3Cc4ccccc4C3)nc2)o1 (stereo not drawn) [Compound 27, 2-(5-(2-((2,3-dihydro-1H-inden-2-yl)amino)pyrimidin-5-yl)-1,3,4-oxadiazol-2-yl)-2-fluoro-1-(1,4,6,7-tetrahydro-5H-[1,2,3]triazolo[4,5-c]pyridin-5-yl)propan-1-one] | 6.26 | 7.08 | 
N#Cc1nc(CC(=O)N2CCc3[nH]nnc3C2)oc1-c1cnc(NC2Cc3ccccc3C2)nc1 [Compound 22, 5-(2-((2,3-dihydro-1H-inden-2-yl)amino)pyrimidin-5-yl)-2-(2-oxo-2-(1,4,6,7-tetrahydro-5H-[1,2,3]triazolo[4,5-c]pyridin-5-yl)ethyl)oxazole-4-carbonitrile] | 4.97 | 6.84 | 
O=C(Cc1nnc(-c2cnc(NC3Cc4ccc(C5CC5)cc4C3)nc2)o1)N1CCc2[nH]nnc2C1 (stereo not drawn) [Compound 7, 2-(5-(2-((5-cyclopropyl-2,3-dihydro-1H-inden-2-yl)amino)pyrimidin-5-yl)-1,3,4-oxadiazol-2-yl)-1-(1,4,6,7-tetrahydro-5H-[1,2,3]triazolo[4,5-c]pyridin-5-yl)ethan-1-one] | 7.46 | 7.67 | 
O=C(Cc1nnc(-c2cnc(NC3Cc4cc5c(cc4C3)CC5)nc2)o1)N1CCc2[nH]nnc2C1 [Compound 30, 2-(5-(2-((2,4,5,6-tetrahydro-1H-cyclobuta[f]inden-5-yl)amino)pyrimidin-5-yl)-1,3,4-oxadiazol-2-yl)-1-(1,4,6,7-tetrahydro-5H-[1,2,3]triazolo[4,5-c]pyridin-5-yl)ethan-1-one] | 1.58 | 1.92 | 
N#Cc1nn(CC(=O)N2CCc3[nH]nnc3C2)cc1-c1cnc(NC2Cc3ccccc3C2)nc1 [Compound 2, 4-(2-((2,3-dihydro-1H-inden-2-yl)amino)pyrimidin-5-yl)-1-(2-oxo-2-(1,4,6,7-tetrahydro-5H-[1,2,3]triazolo[4,5-c]pyridin-5-yl)ethyl)-1H-pyrazole-3-carbonitrile] | 6.19 | 6.85 | 
C#Cc1ccc2c(c1)C[C@@H](Nc1ncc(-c3nnc(CC(=O)N4CCc5[nH]nnc5C4)o3)cn1)C2 (single isomer, unassigned) [Compound 40] | 1.51 | 1.56 | 
O=C(Cn1cc(-c2cnc(NC3Cc4ccccc4C3)nc2)c(OC2CC2)n1)N1CCc2[nH]nnc2C1 [Compound 1, 2-(3-cyclopropoxy-4-(2-((2,3-dihydro-1H-inden-2-yl)amino)pyrimidin-5-yl)-1H-pyrazol-1-yl)-1-(1,4,6,7-tetrahydro-5H-[1,2,3]triazolo[4,5-c]pyridin-5-yl)ethan-1-one] | 8.53 |  | 
O=C(N1CCc2[nH]nnc2C1)C1(c2nnc(-c3cnc(NC4Cc5ccccc5C4)nc3)o2)CC1 [Compound 4, (1-(5-(2-((2,3-dihydro-1H-inden-2-yl)amino)pyrimidin-5-yl)-1,3,4-oxadiazol-2-yl)cyclopropyl)(1,4,6,7-tetrahydro-5H-[1,2,3]triazolo[4,5-c]pyridin-5-yl)methanone] | 4.93 | 5.33 | 
O=C(NC1(c2nnc(-c3cnc(NC4Cc5ccccc5C4)nc3)o2)CC1)N1CCc2[nH]nnc2C1 [Compound 14, N-(1-(5-(2-((2,3-dihydro-1H-inden-2-yl)amino)pyrimidin-5-yl)-1,3,4-oxadiazol-2-yl)cyclopropyl)-1,4,6,7-tetrahydro-5H-[1,2,3]triazolo[4,5-c]pyridine-5-carboxamide] | 5.97 | 6.56 | 

From US20230069174A1, “NITROGEN-CONTAINING HETEROCYCLIC AUTOTAXIN INHIBITOR, AND COMPOSITION CONTAINING SAME AND USE THEREOF” (SICHUAN HAISCO PHARMACEUTICAL CO., LTD., priority 2019, published 2023)
